Data: patent US20250090562A1, “METHODS, COMPOSITIONS AND USES RELATED TO THE TREATMENT AND PREVENTION OF LEIGH’S SYNDROME” (Stealth BioTherapeutics Inc., priority 2023, published 2025)
Entries after “also recorded” stand apart in the source; their conditions may differ.

How the values were obtained:
[1] = test system: Leigh syndrome (GM03672) fibroblasts; assay: RSL3 cytoprotection assay, Leigh fibroblasts; assay type: cell-based, human; settings: for relative anti-ferroptosis properties (comparison between test articles): 375 nM RSL3, 10-1000 nM compound, 4 h
Procedure: (§1) Patient fibroblasts were acquired from Coriell Institute for Medical Research (Camden, NJ, USA). GM03672 is an untransformed fibroblast cell line from a Leigh syndrome patient carrying an unknown mutation. GM08402 is an untransformed fibroblast from an apparently healthy individual. Cells were cultured at 37° C. at 5% CO2 in Eagle's Minimum Essential Medium (MEM, Corning), which was supplemented with Earle's salts and non-essential amino acids, 15% qualified fetal bovine serum, and 1% penicillin/streptomycin ([…]) to yield “Complete MEM.”
(§2) To initiate the RSL3 cytoprotection experiment, Healthy (GM08402) and Leigh syndrome (GM03672) fibroblasts were resuspended in Complete MEM. Cells were seeded at 10,000 cells per well in a clear, tissue cultured-treated, 96-well plate and incubated at 37° C. overnight. Following the incubation, supernatant was manually aspirated, taking care not to disrupt cells. […]. Luminescence units were quantified by GEN5 software on a BioTek SYNERGY neo2 plate reader (LUM filter).
(§3) RSL3 is an inhibitor of the enzyme glutathione peroxidase 4 (GPX4), which decreases lipid peroxides. RSL3 inhibition of GPX4 induces ferroptosis through iron-dependent accumulation of lipid ROS. In this assay, Healthy or Leigh fibroblasts were treated for 4 hours with RSL3 to induce ferroptosis or left untreated. Endogenous ATP levels were measured as an indicator of cellular viability using a commercially available kit (CellTiter-Glo® 2.0 Cell Viability Assay (Promega)).
(§4) […]. […] Briefly, ferroptosis was induced with 1 μM RSL3 in healthy fibroblast cells and 375 nM RSL3 in fibroblasts from a patient with Leigh syndrome.
(§5) A preliminary experiment was performed to determine the effect of RSL3 injury on the fibroblasts of a healthy individual (cell line: GM08402) and the fibroblasts of a patient diagnosed with Leigh syndrome (cell line: GM03672).

[2] = test system: 15-lipoxygenase (15-LO); assay: 15(S)-HETE ELISA following RSL3 treatment, Leigh fibroblasts; assay type: cell-based, human; settings: 700 nM RSL3, 1 μM compound, 24 h
Procedure: Samples for the 15(S)-HETE ELISA were generated by the RSL3 cytoprotection assay described above. Healthy or Leigh fibroblasts were resuspended in assay medium, seeded at 200,000 cells per well in a clear, tissue culture-treated, 24-well plate. Cells were incubated at 37° C. for 24 hours. Supernatant was aspirated from each well following the incubation.
Fibroblasts from both a healthy individual and a patient diagnosed with Leigh syndrome were examined (but not all compounds were examined in each cell type). Activation of ferroptosis has been implicated as a driver of epilepsy, which is commonly associated with Leigh syndrome. […] Kahn-Kirby et al. PLOS One. […] As a key regulator of ferroptosis, 15-LO serves as a rational therapeutic target in Leigh syndrome.

[3] = test system: Leigh (GM03672) fibroblasts; assay: Erastin cytoprotection assay, Leigh fibroblasts; assay type: cell-based, human; settings: 2 μM erastin, 250 μM FAC, 50 μM AA, 10-1000 nM compound, 24 h
Procedure: (§6) Briefly, Healthy (GM08402) or Leigh (GM03672) fibroblasts were resuspended in assay medium, seeded at 10,000 cells per well in a clear, tissue cultured-treated, 96-well plate, and incubated at 37° C. overnight. Following the incubation, supernatant was manually aspirated from wells, taking care not to disrupt cells. Fibroblasts were co-treated in a final volume of 100 μL with 2 μM erastin (Millipore Corp., Cat #), 250 μM ferric ammonium citrate (FAC), 50 μM ascorbic acid (AA), and a titration of one of each of Compounds 1 to 4 or Vatiquinone ranging from 10 to 1000 nM. Following another 24-hour incubation at 37° C., cell viability was measured using the CellTiter-Glo Luminescent Cell Viability Kit (ProMega) per Manufacturer's instructions. Luminescence units were quantified by GEN5 software on a BioTek SYNERGY neo2 plate reader (LUM filter).
(§7) Briefly, erastin, like RSL3, is known to induce ferroptosis. […] Erastin was incubated with cell fibroblasts for 24 hours to induce ferroptosis. Cells were co-treated with each of Compounds 1 to 4, or Vatiquinone as the test articles. Test articles were administered at a range of concentrations to derive a curve. Cell viability was determined using a commercially available kit that measures ATP production. […] An increase in cell viability as determined by the assay is considered to be protective against ferroptosis.

[4] = test system: Healthy (GM08402) fibroblasts; assay: RSL3 cytoprotection assay, healthy fibroblasts; assay type: cell-based, human; settings: for relative anti-ferroptosis properties (comparison between test articles): 1 μM RSL3, 10-1000 nM compound, 4 h
Procedure: as §1, §2, §3, §4, §5

[5] = test system: rotenone-inhibited Complex I; assay: Complex I-bypass assay ((CI)-bypass assay), high-resolution respirometry O2 consumption; assay type: cell-based, human; settings: Leigh (GM03672) fibroblasts, 0.5 μM rotenone; for Complex I by-pass activity (restoration of oxygen consumption rate): titrations 125 nM to 8 μM
Procedure: All high-resolution respirometry experiments were conducted using the Oroboros O2k-Fluorespirometer (Oroboros, Innsbruck, Austria). The Oroboros O2k-Fluorespirometer was calibrated daily using the air calibration protocol on DatLab 7.4 (Oroboros, Innsbruck, Austria). Prior to each experiment requiring the fluorescence module, the AmpR calibration protocol from DatLab 7.4 was used to calibrate the fluorescence signal. Initial data analysis, including setting of marks, was performed using DatLab 7.4.
Complex I-bypass activity was assessed using HRR to measure O2 consumption. Briefly, Leigh (GM03672) fibroblasts were harvested with trypsin, pelleted at 300×g centrifugation, and resuspended in prewarmed, complete MEM. Cells were added to each chamber via buffer replacement at a concentration of 1-2 million per mL. The chambers were closed to initiate measurement of O2 consumption. The slope negative signal, which is a derivative of O2 consumption, was allowed to stabilize over the course of several minutes. Using a Hamilton syringe to allow for continuous measurement of O2 consumption, glutamate (10 mM final concentration) and malate (0.1 mM final concentration) were added to the closed chamber through the central capillary of the stopper. The slope negative signal was stabilized for several minutes, and rotenone was added at a final concentration of 0.5 μM. One of Compounds 1 to 4 or Vatiquinone was added at increasing concentrations, allowing for several minutes of stabilization of the slope negative signal between titrations. Marks were set at signal plateaus in between titrations. Values were exported and analyzed using GraphPad Prism 9. […] Responsiveness of cells was confirmed with idebenone.
Statistical analysis was performed using GraphPad Prism 9. Complex I-bypass data were fit using nonlinear sigmoidal 4P fit. RET Assay data were analyzed by 2-way ANOVA using a p-value of 0.05.
The Complex 1-bypass assay ((CI)-bypass Assay) evaluates the capacity of compounds to donate electrons into the electron transport chain (ETC) when Complex I is impaired or otherwise deficient. Normally, electrons feed into the ETC through Complex I. In instances where Complex I is impaired, electrons must enter the ETC downstream of Complex I for oxidative phosphorylation (OXPHOS) to occur. Complex I is composed of 46 subunits, encoded by mitochondrial and nuclear genes. Due to its large size, Complex I mutations are a common cause of ETC dysfunction in mitochondrial diseases. Indeed, mutations in the genes that encode subunits for Complex I are important causes of Leigh and Leigh-like syndrome.
Using this assay, the ability of Compounds 1 to 4 and Vatiquinone to bypass rotenone-inhibited Complex I was determined. Rotenone is a widely used Complex I inhibitor and blocks the transfer of electrons from the iron-sulfur complexes on Complex I to ubiquinone. Thus, when rotenone is introduced to cells underdoing routine respiration, a decrease in oxygen consumption is observed, which is indicative of disrupted OXPHOS. The ability of Compounds 1 to 4 and Vatiquinone to “bypass” Complex I and restore OXPHOS is measured by an increase in oxygen consumption rate following addition of the compound to the chamber.
In executing this assay, in each instance, fibroblasts are added to each chamber of the Oroboros Oxygraph-2K (the “O2k”). The O2k generates two traces: 1) total oxygen consumption over time, 2) the rate of oxygen consumption over time (slope negative). Baseline respiration is established for several minutes by allowing the slope negative to stabilize. Rotenone is introduced to each chamber at a final concentration of 0.5 μM. The addition of rotenone is expected to cause a marked reduction of OXPHOS as measured by a decreased rate of oxygen consumption. Then the test article (i.e., in this case one of Compounds 1 to 4 or Vatiquinone) is added to the chamber. […]

[6] = test system: Healthy (GM08402) fibroblasts; assay: Erastin cytoprotection assay, healthy fibroblasts; assay type: cell-based, human; settings: 2 μM erastin, 250 μM FAC, 50 μM AA, 10-1000 nM compound, 24 h
Procedure: as §6, §7

[7] = test system: Leigh fibroblasts (GM03672); assay: Mitochondrial membrane potential (TMRM flow cytometry) in RSL3-treated Leigh fibroblasts; assay type: cell-based, human; settings: 1 μM RSL3 alone, 4 h
Procedure: Leigh fibroblasts (GM03672) were seeded in a 24-well, tissue culture-treated plate in complete MEM (MEM+15% FBS+1% penicillin/streptomycin) at a density of 1×10^5 cells per 500 μL and incubated overnight at 37° C. at 5% CO2. Cells were treated for 4 hours at 37° C. with either 1 μM RSL3, 1 μM RSL3 with 1 μM Compound 3 or media for untreated cells. Following the incubation, supernatant was removed and cells were treated with 0.25% trypsin for 5 min at 37° C. Trypsin was neutralized with an equal part MEM. Cells were dislodged with gentle pipetting and pelleted at 300×g for 5 minutes. Pellets were resuspended in 500 μL Fluobrite DMEM and cells were transferred to a 96-well, v-bottom plate. Cells were stained with 20 nM MitoTracker Green and 100 nM tetramethylrhodamine methyl ester (TMRM) Samples were incubated for 25 minutes at 37° C. Each well was mixed immediately prior to analysis to resuspend settled cells. Fluorescence intensity was measured on the BD Accuri C6 Plus Flow Cytometer. A minimum of 10,000 events per sample was collected. Data analysis was performed using FloJo vs. 10. Gating was performed by establishing an initial forward scatter vs. side scatter gate. MitoTracker Green positive, TMRM positive cells were identified through subsequent gating. Median fluorescence intensity (MFI) of TMRM fluorescence was determined. Using GraphPad Prism 10, statistical significance between groups was determined by One-way ANOVA. A p-value of less than 0.05 was considered significant. Results are presented graphically in FIG. 20.

[8] = patients with pontocerebellar hypoplasia type 6; cited from earlier work

Compound | relative anti-ferroptosis properties (comparison between test articles) [1] | relative 15-LO inhibition (comparison between test articles) [2] | relative protective effect against erastin induced ferroptosis (cell viability, ATP) [3] | relative anti-ferroptosis properties (comparison between test articles) [4] | EC50 ([5]; oxygen consumption rate, read-out: EC50 value, Complex I by-pass activity) [µM] | Complex I by-pass activity (restoration of oxygen consumption rate) [5] | relative protective effect against erastin induced ferroptosis (cell viability, ATP) [6] | RSL3 concentration sufficient for 25-30% killing of cells ([1]; Leigh fibroblasts GM03672, 4 h) [nM] | RSL3 concentration sufficient for 25-30% killing of cells ([4]; healthy fibroblasts GM08402, 4 h) [µM] | mitochondrial membrane potential (TMRM MFI) [7] | effect on seizures [8]
COC1=C(OC)C(=O)C(CCCCCCCCCC(F)(F)F)=C(C)C1=O [Compound 1] | roughly equivalent in their anti-ferroptosis properties | superior to Compounds 2, 3 and 4 | about equally protective | roughly equivalent in their anti-ferroptosis properties | ~13.7 | restored oxygen consumption rate in a dose-dependent manner | about equally protective |  |  |  | 
COC(=O)c1ccc([C@H]2c3[nH]c4ccccc4c3C[C@H](C(=O)OC)N2C(=O)CCl)cc1 [RSL3, (1S,3R)-Methyl 2-(2-chloroacetyl)-2,3,4,9-tetrahydro-1-[4-(methoxycarbonyl)phenyl]-1H-pyrido[3,4-b]indole-3-carboxylate, reference compound] |  |  |  |  |  |  |  | 700 | 1 | significant reduction in mitochondrial membrane potential | 
CC(C)=CCC/C(C)=C/CC/C(C)=C/CC[C@@](C)(O)CCC1=C(C)C(=O)C(C)=C(C)C1=O [Vatiquinone, reference compound] | roughly equivalent in their anti-ferroptosis properties |  | superior in its protective effect as compared with Compounds 1 and 4 | roughly equivalent in their anti-ferroptosis properties |  | no CI-bypass activity; also recorded: inactive | about equally protective |  |  |  | reduce the incidence of seizures; also recorded: decrease seizure frequency and morbidity
